Data published in US9133183B2, “Imidazolidinones and analogs exhibiting anti-cancer and anti-proliferative activities” (Deciphera Pharmaceuticals, LLC, priority 2013, dated 2015).

Each molecule was assayed against unphosphorylated PDGFRβ kinase (uPDGFRβ, Seq. ID No. 3) (Homo sapiens (Human), UniProt P09619) (assay: Unphosphorylated PDGFRβ kinase assay (coupled pyruvate kinase/lactate dehydrogenase)). Conditions: enzymatic assay, ATP 500 μM.
unphosphorylated PDGFRβ kinase (uPDGFRβ, Seq. ID No. 3), sequence (P09619 557-1106): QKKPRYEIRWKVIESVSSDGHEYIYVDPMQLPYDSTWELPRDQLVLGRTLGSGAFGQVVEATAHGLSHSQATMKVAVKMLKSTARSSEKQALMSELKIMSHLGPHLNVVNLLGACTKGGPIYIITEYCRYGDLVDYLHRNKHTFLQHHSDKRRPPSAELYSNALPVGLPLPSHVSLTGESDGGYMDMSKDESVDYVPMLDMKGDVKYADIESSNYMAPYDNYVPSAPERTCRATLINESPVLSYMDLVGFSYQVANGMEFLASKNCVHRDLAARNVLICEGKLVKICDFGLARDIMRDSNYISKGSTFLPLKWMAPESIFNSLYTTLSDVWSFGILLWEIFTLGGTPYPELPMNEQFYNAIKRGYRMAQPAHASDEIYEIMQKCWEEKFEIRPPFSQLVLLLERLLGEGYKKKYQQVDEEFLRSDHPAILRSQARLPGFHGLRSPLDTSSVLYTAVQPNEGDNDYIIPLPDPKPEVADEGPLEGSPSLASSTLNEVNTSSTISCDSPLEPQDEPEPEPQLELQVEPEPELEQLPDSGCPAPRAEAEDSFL
Type: biochemical
How it was run: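 Construct residues 557-1106, unphosphorylated, 15.7 nM, with poly E4Y 2.5 mg/mL and 500 μM ATP, Tris pH 7.5, 1% DMSO, 30 °C. ADP coupled to NADH oxidation via PK/LDH, A340 followed 4 h; rate from 1.5-2.5 h versus no-compound control, IC50 from percent-inhibition series.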
With `Cc1nc(NC(=O)N2CCN(C3CCC(F)(F)CC3)C2=O)ccc1Oc1ccnc(-c2cnn(C)c2)c1` [Example 26, 3-(4,4-difluorocyclohexyl)-N-(6-methyl-5-((2-(1-methyl-1H-pyrazol-4-yl)pyridin-4-yl)oxy)pyridin-2-yl)-2-oxoimidazolidine-1-carboxamide] the IC50 was over 1000 nM.
`Cc1nc(NC(=O)N2CCN(C(C)(C)C)C2=O)ccc1Oc1ccnc(-c2cnn(C)c2)c1` [Example 33, 3-(tert-butyl)-N-(6-methyl-5-((2-(1-methyl-1H-pyrazol-4-yl)pyridin-4-yl)oxy)pyridin-2-yl)-2-oxoimidazolidine-1-carboxamide] was tested, and the IC50 was 100 to 1000 nM.
In the case of `Cn1cc(-c2cc(Oc3ccc(NC(=O)N4CCN(C(C)(C)C)C4=O)nc3)ccn2)cn1` [Example 34, 3-(tert-butyl)-N-(5-((2-(1-methyl-1H-pyrazol-4-yl)pyridin-4-yl)oxy)pyridin-2-yl)-2-oxoimidazolidine-1-carboxamide], the IC50 is reported as 10 to 100 nM.
`Cc1nc(NC(=O)N2CCN(C(C)C)C2=O)ccc1Oc1ccnc(-c2cnn(C)c2)c1` [Example 35, 3-isopropyl-N-(6-methyl-5-((2-(1-methyl-1H-pyrazol-4-yl)pyridin-4-yl)oxy)pyridin-2-yl)-2-oxoimidazolidine-1-carboxamide] showed an IC50 of 100 to 1000 nM.
Molecule `CC(C)N1CCN(C(=O)Nc2ccc(Oc3ccnc(-c4cnn(C)c4)c3)cn2)C1=O` [Example 36, 3-isopropyl-N-(5-((2-(1-methyl-1H-pyrazol-4-yl)pyridin-4-yl)oxy)pyridin-2-yl)-2-oxoimidazolidine-1-carboxamide] has an IC50 of 100 to 1000 nM.
`[2H]C([2H])([2H])n1cc(-c2cc(Oc3ccc(NC(=O)N4CCN(CCOC)C4=O)nc3C)ccn2)cn1` [Example 39, 3-(2-methoxyethyl)-N-(6-methyl-5-((2-(1-(trideuteromethyl)-1H-pyrazol-4-yl)pyridin-4-yl)oxy)pyridin-2-yl)-2-oxoimidazolidine-1-carboxamide] showed an IC50 of over 1000 nM.
`Cc1nc(NC(=O)N2CCN(CC(F)(F)F)C2=O)ccc1Oc1ccnc(-c2cnn(C)c2)c1` [Example 43, N-(6-methyl-5-((2-(1-methyl-1H-pyrazol-4-yl)pyridin-4-yl)oxy)pyridin-2-yl)-2-oxo-3-(2,2,2-trifluoroethyl)imidazolidine-1-carboxamide] gave an IC50 of over 1000 nM.
`CCc1nc(NC(=O)N2CCN(C3CCOCC3)C2=O)ccc1Oc1ccnc(-c2cnn(C)c2)c1` [Example 49, N-(6-ethyl-5-((2-(1-methyl-1H-pyrazol-4-yl)pyridin-4-yl)oxy)pyridin-2-yl)-2-oxo-3-(tetrahydro-2H-pyran-4-yl)imidazolidine-1-carboxamide] showed an IC50 of over 1000 nM.
`Cc1ccc(-c2cc(Oc3ccc(NC(=O)N4CCN(C5CCOCC5)C4=O)nc3)ccn2)cn1` [Example 52, N-(5-((6′-methyl-[2,3′-bipyridin]-4-yl)oxy)pyridin-2-yl)-2-oxo-3-(tetrahydro-2H-pyran-4-yl)imidazolidine-1-carboxamide] showed an IC50 of 100 to 1000 nM.
`Cc1ccc(-c2cc(Oc3ccc(NC(=O)N4CCN(C5CCOCC5)C4=O)nc3C)ccn2)cn1` [Example 54, N-(6-methyl-5-((6′-methyl-[2,3′-bipyridin]-4-yl)oxy)pyridin-2-yl)-2-oxo-3-(tetrahydro-2H-pyran-4-yl)imidazolidine-1-carboxamide] showed an IC50 of 100 to 1000 nM.
`CCc1nc(NC(=O)N2CCN(CC(F)(F)F)C2=O)ccc1Oc1ccnc(-c2cnn(C)c2)c1` [Example 56, N-(6-ethyl-5-((2-(1-methyl-1H-pyrazol-4-yl)pyridin-4-yl)oxy)pyridin-2-yl)-2-oxo-3-(2,2,2-trifluoroethyl)imidazolidine-1-carboxamide] gave an IC50 of over 1000 nM.
`CCc1nc(NC(=O)N2CCN(C3CCCC3)C2=O)ccc1Oc1ccnc(-c2cnn(C)c2)c1` [Example 57, 3-cyclopentyl-N-(6-ethyl-5-((2-(1-methyl-1H-pyrazol-4-yl)pyridin-4-yl)oxy)pyridin-2-yl)-2-oxoimidazolidine-1-carboxamide] was tested, and the IC50 was over 1000 nM.
